System: HCT 116 cells
Experiment: Viability assay HCT 116 cells (CellTiter-Glo)
Format: cell-based
Conditions: Homo sapiens, HCT-116, 120 h, HCT 116 human colon carcinoma cells, 5 days incubation, CellTiter-Glo luminescence
Experimental: Viability Assay—HCT 116 Cells
A viability assay was performed using the CellTiter-Glo® Luminescent Cell Viability Assay (see Promega Corporation's Technical Bulletin No. 288, pp. 1-11 [revised 2/04] which is hereby incorporated by reference in its entirety). This assay is a homogeneous method of determining the number of viable cells in culture based on quantitation of the ATP present, an indicator of metabolically active cells. The assay is designed for use with multiwell formats, making it ideal for automated high-throughput screening (HTS), cell proliferation and cytotoxicity assays. The homogeneous assay procedure involves adding a single reagent (containing luciferase, luciferan substrate, and buffer) directly to cells cultured in serum-supplemented medium. Cell washing, removal of medium and multiple pipetting steps are not required. The system detects as few as 15 cells/well in a 384-well format in 10 minutes after adding reagent and mixing.
The homogeneous “add-mix-measure” format results in cell lysis and generation of a luminescent signal proportional to the amount of ATP present. The amount of ATP is directly proportional to the number of cells present in culture. The above-referenced assay generates a “glow-type” luminescent signal, produced by the luciferase reaction, which has a half-life generally greater than five hours, depending on cell type and medium used. The extended half-life eliminates the need to use reagent injectors and provides flexibility for continuous or batch mode processing of multiple plates. The unique homogeneous format avoids errors that may be introduced by other ATP measurement methods that require multiple steps.
HCT 116 cells (human colon carcinoma, ATCC-No. CCl-247) were cultivated in RPMI 1640 medium with GlutaMAX™ I (cell culture media that contains L-Alanyl-L-Glutamine [a stabilized a form/source of L-Glutamine] from Invitrogen, Cat-No. 61870-010), 2.5% Fetal Calf Serum (FCS, Sigma Cat-No. F4135 (FBS)); 100 Units/ml penicillin/100 μg/ml streptomycin (=Pen/Strep from Invitrogen Cat. No. 15140). For the assay the cells were seeded in 384 well plates, 1000 cells per well, in the same medium. The next day the test compounds were added in various concentrations ranging from 30 μM to 0.0015 μM (10 concentrations, 1:3 diluted). After 5 days the viability assay was done according to the instructions of the manufacturer. In brief: the cell-plate was equilibrated to room temperature for approximately 30 minutes and than the reagent (containing luciferase, luciferan substrate, and buffer) was added. The contents were carefully mixed for 15 minutes to induce cell lysis. After 45 minutes the luminescent signal was measured in Victor 2, (scanning multiwell spectrophotometer, Wallac).
Medium: RPMI 1640 with cell culture media containing L-Alanyl-L-Glutamine [GlutaMAX™ I (Invitrogen, Cat-Nr. 61870)], 5% FCS (Sigma Cat.-No. F4135), Pen/Strep (Invitrogen, Cat No. 15140). • HCT116 (ATCC-No. CCl-247): 1000 cells in 60 μl per well of 384 well plate (Greiner 781098, μClear-plate white) • After seeding incubate plates 24 h at 37° C., 5% CO2 2nd. Day: Induction (Treatment with Compounds, 10 Concentrations):
In order to achieve a final concentration of 30 μM as highest concentration […] of 10 mM compound stock solution were added directly to 163 μl media. Then step e) of the dilution procedure described below, was followed.

CCN1C(=O)C(C)(C)c2cc3nc(-c4n[nH]c5ccc(C(=O)NCc6ccccc6)cc45)[nH]c3cc21 [Example 79, 3-(5-Ethyl-7,7-dimethyl-6-oxo-3,5,6,7-tetrahydro-imidazo[4,5-f]indol-2-yl)-1H-indazole-5-carboxylic acid benzylamide] and CCN1C(=O)C(C)(C)c2cc3nc(-c4n[nH]c5ccc(C(=O)NCc6cccc(Cl)c6)cc45)[nH]c3cc21 [Example 88, 3-(5-Ethyl-7,7-dimethyl-6-oxo-3,5,6,7-tetrahydro-imidazo[4,5-f]indol-2-yl)-1H-indazole-5-carboxylic acid 3-chloro-benzylamide] fall in the same range of IC50: 0.1 to 1 µM for the first, 0.1 to 1 µM for the second.

CCN(CC)CCN1C(=O)C(C)(C)c2cc3nc(-c4n[nH]c5ccccc45)[nH]c3cc21 [Example 22, 5-(2-Diethylamino-ethyl)-2-(1H-indazol-3-yl)-7,7-dimethyl-5,7-dihydro-3H-imidazo[4,5-f]indol-6-one] and CN1C(=O)C(C)(C)c2cc3nc(-c4n[nH]c5ccccc45)[nH]c3cc21 [Example 4, 2-(1H-indazol-3-yl)-5,7,7-trimethyl-5,7-dihydro-3H-imidazo[4,5-f]indol-6-one] fall in the same range of IC50: 0.1 to 1 µM for the first, 0.1 to 1 µM for the second.

First: CCN1C(=O)C(C)(C)c2cc3nc(-c4n[nH]c5ccc(C(=O)NCc6ccncc6)cc45)[nH]c3cc21 [Example 82, 3-(5-Ethyl-7,7-dimethyl-6-oxo-3,5,6,7-tetrahydro-imidazo[4,5-f]indol-2-yl)-1H-indazole-5-carboxylic acid (pyridin-4-ylmethyl)-amide; compound with acetic acid]
Second: CCN1C(=O)C(C)(C)c2cc3nc(-c4n[nH]c5ccc(C(=O)NCc6ccc(F)cc6F)cc45)[nH]c3cc21 [Example 85, 3-(5-Ethyl-7,7-dimethyl-6-oxo-3,5,6,7-tetrahydro-imidazo[4,5-f]indol-2-yl)-1H-indazole-5-carboxylic acid 2,4-difluoro-benzylamide]
The IC50 of the first is higher: 1 to 10 µM for the first, 0.1 to 1 µM for the second. The second is the more potent here.

CC1(C)C(=O)N(CCNC(=O)c2cccnc2)c2cc3[nH]c(-c4n[nH]c5ccccc45)nc3cc21 [Example 55, N-{2-[2-(1H-Indazol-3-yl)-7,7-dimethyl-6-oxo-6,7-dihydro-3H-imidazo[4,5-f]indol-5-yl]-ethyl}-nicotinamide] and CC1(C)C(=O)N(CCNC(=O)C2CC2)c2cc3[nH]c(-c4n[nH]c5ccccc45)nc3cc21 [Example 56, Cyclopropanecarboxylic acid {2-[2-(1H-indazol-3-yl)-7,7-dimethyl-6-oxo-6,7-dihydro-3H-imidazo[4,5-f]indol-5-yl]-ethyl}-amide] fall in the same range of IC50: 0.1 to 1 µM for the first, 0.1 to 1 µM for the second.

First: CCN1C(=O)C(C)(C)c2cc3nc(-c4n[nH]c5ccc(C(=O)N6CCSC6)cc45)[nH]c3cc21 [Example 96, 5-Ethyl-7,7-dimethyl-2-[5-(thiazolidine-3-carbonyl)-1H-indazol-3-yl]-5,7-dihydro-3H-imidazo[4,5-f]indol-6-one]
Second: CCN1C(=O)C(C)(C)c2cc3nc(-c4n[nH]c5ccc(C(N)=O)cc45)[nH]c3cc21 [Example 100, 3-(5-Ethyl-7,7-dimethyl-6-oxo-3,5,6,7-tetrahydro-imidazo[4,5-f]indol-2-yl)-1H-indazole-5-carboxylic acid amide]
The IC50 of the first is lower: 0.1 to 1 µM for the first, 1 to 10 µM for the second. The first is the more potent here.

First: CCN1C(=O)C(C)(C)c2cc3nc(-c4n[nH]c5ccc(NC(C)=O)cc45)[nH]c3cc21 [Example 145, N-[3-(5-Ethyl-7,7-dimethyl-6-oxo-3,5,6,7-tetrahydro-imidazo[4,5-f]indol-2-yl)-1H-indazol-5-yl]-acetamide]
Second: CCN1C(=O)C(C)(C)c2cc3nc(-c4n[nH]c5ccc(C(C)=O)cc45)[nH]c3cc21 [Example 103, 2-(5-Acetyl-1H-indazol-3-yl)-5-ethyl-7,7-dimethyl-5,7-dihydro-3H-imidazo[4,5-f]indol-6-one]
The IC50 of the first is higher: 1 to 10 µM for the first, 0.1 to 1 µM for the second.

CC1(C)C(=O)N(CCNC(=O)N2CCCC2)c2cc3[nH]c(-c4n[nH]c5ccccc45)nc3cc21 [Example 58, Pyrrolidine-1-carboxylic acid {2-[2-(1H-indazol-3-yl)-7,7-dimethyl-6-oxo-6,7-dihydro-3H-imidazo[4,5-f]indol-5-yl]-ethyl}-amide] and CC1(C)C(=O)N(CC2CC2)c2cc3[nH]c(-c4n[nH]c5ccccc45)nc3cc21 [Example 1, 5-Cyclopropylmethyl-2-(1H-indazol-3-yl)-7,7-dimethyl-5,7-dihydro-3H-imidazo[4,5-f]indol-6-one] fall in the same range of IC50: 0.1 to 1 µM for the first, 0.1 to 1 µM for the second.

CC(C)N1C(=O)C(C)(C)c2cc3[nH]c(-c4n[nH]c5ccc(NS(=O)(=O)c6ccccc6[N+](=O)[O-])cc45)nc3cc21 [Example 144, N-[3-(5-Isopropyl-7,7-dimethyl-6-oxo-1,5,6,7-tetrahydro-imidazo[4,5-f]indol-2-yl)-1H-indazol-5-yl]-2-nitro-benzenesulfonamide] and CCN1C(=O)C(C)(C)c2cc3[nH]c(-c4n[nH]c5ccc(NS(=O)(=O)c6ccccc6[N+](=O)[O-])cc45)nc3cc21 [Example 134, N-[3-(5-Ethyl-7,7-dimethyl-6-oxo-1,5,6,7-tetrahydro-imidazo[4,5-f]indol-2-yl)-1H-indazol-5-yl]-2-nitro-benzenesulfonamide] fall in the same range of IC50: 0.1 to 1 µM for the first, 0.1 to 1 µM for the second.

CCN1C(=O)C(C)(C)c2cc3nc(-c4n[nH]c5ccc(C#N)cc45)[nH]c3cc21 [Example 72, 3-(5-Ethyl-7,7-dimethyl-6-oxo-3,5,6,7-tetrahydro-imidazo[4,5-f]indol-2-yl)-1H-indazole-5-carbonitrile] and CCC(=O)Nc1ccc2[nH]nc(-c3nc4cc5c(cc4[nH]3)C(C)(C)C(=O)N5CC)c2c1 [Example 122, N-[3-(5-Ethyl-7,7-dimethyl-6-oxo-1,5,6,7-tetrahydro-imidazo[4,5-f]indol-2-yl)-1H-indazol-5-yl]-propionamide] fall in the same range of IC50: 0.1 to 1 µM for the first, 0.1 to 1 µM for the second.

CC(C)N1C(=O)C(C)(C)c2cc3[nH]c(-c4n[nH]c5ccc(NS(=O)(=O)c6ccc(F)cc6)cc45)nc3cc21 [Example 142, 4-Fluoro-N-[3-(5-isopropyl-7,7-dimethyl-6-oxo-1,5,6,7-tetrahydro-imidazo[4,5-f]indol-2-yl)-1H-indazol-5-yl]-benzenesulfonamide] and CCN1C(=O)C(C)(C)c2cc3nc(-c4n[nH]c5ccc(NS(=O)(=O)c6cc(F)ccc6F)cc45)[nH]c3cc21 [Example 141, N-[3-(5-Ethyl-7,7-dimethyl-6-oxo-3,5,6,7-tetrahydro-imidazo[4,5-f]indol-2-yl)-1H-indazol-5-yl]-2,5-difluoro-benzenesulfonamide] fall in the same range of IC50: 0.1 to 1 µM for the first, 0.1 to 1 µM for the second.

CCN1C(=O)C(C)(C)c2cc3[nH]c(-c4n[nH]c5ccc(NS(=O)(=O)c6ccccc6S(C)(=O)=O)cc45)nc3cc21 [Example 140, N-[3-(5-Ethyl-7,7-dimethyl-6-oxo-1,5,6,7-tetrahydro-imidazo[4,5-f]indol-2-yl)-1H-indazol-5-yl]-2-methanesulfonyl-benzenesulfonamide] and CCN1C(=O)C(C)(C)c2cc3nc(-c4n[nH]c5cc(C(=O)Nc6ccccc6)ccc45)[nH]c3cc21 [Example 108, 3-(5-Ethyl-7,7-dimethyl-6-oxo-3,5,6,7-tetrahydro-imidazo[4,5-f]indol-2-yl)-1H-indazole-6-carboxylic acid phenylamide] fall in the same range of IC50: 0.1 to 1 µM for the first, 0.1 to 1 µM for the second.

CCN1C(=O)CC(C)(C)c2cc3nc(-c4n[nH]c5ccccc45)[nH]c3cc21 [Example 14, 5-Ethyl-2-(1H-indazol-3-yl)-8,8-dimethyl-3,5,7,8-tetrahydro-imidazo[4,5-g]quinolin-6-one] and CC1(C)C(=O)N(CC(=O)NOCc2ccccc2)c2cc3[nH]c(-c4n[nH]c5ccccc45)nc3cc21 [Example 50, N-Benzyloxy-2-[2-(1H-indazol-3-yl)-7,7-dimethyl-6-oxo-6,7-dihydro-3H-imidazo[4,5-f]indol-5-yl]-acetamide] cannot be ordered by IC50: 0.64 µM for the first, 0.1 to 1 µM for the second.

With COc1cc(CNC(=O)CN2C(=O)C(C)(C)c3cc4nc(-c5n[nH]c6ccccc56)[nH]c4cc32)cc(OC)c1 [Example 47, N-(3,5-Dimethoxy-benzyl)-2-[2-(1H-indazol-3-yl)-7,7-dimethyl-6-oxo-6,7-dihydro-3H-imidazo[4,5-f]indol-5-yl]-acetamide] the IC50 was 0.1 to 1 µM.
